Assay results reported in publication PMC8296573, “Synthesis and Biological Evaluation of Fingolimod Derivatives as Antibacterial Agents” (ACS Omega, 2021).
Values after ≈ are worked out from the molar mass of the structure shown. Read-outs that look alike come from different tables or passages of the source.

Legend:
[1] = test system: S. aureus ATCC 12598; test: Antibacterial activity, pre-exposure; type: cell-based, Staphylococcus aureus; conditions: for Average inhibition %, biofilms viability / Average inhibition %, planktonic cells viability / inhibition at 5 µM / inhibition at 10 µM / inhibition at 15 µM / inhibition at 25 µM: S. aureus ATCC 12598, pre-exposure, ± SD; for inhibition at 5 µM / inhibition at 10 µM / inhibition at 15 µM / inhibition at 25 µM / MIC: Staphylococcus aureus, ATCC12598
Method in brief: (§1)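 Growth prevention was tested by adding compounds together with the inoculum. Plates were incubated 18 h at 37 °C. Viability was read by resazurin fluorescence and biomass by crystal violet absorbance at 595 nm.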

[2] = test system: S. aureus P2; test: Antibacterial activity, pre-exposure; type: cell-based, Staphylococcus aureus; conditions: for Average inhibition %, biofilms viability / Average inhibition %, planktonic cells viability / inhibition at 5 µM / inhibition at 10 µM / inhibition at 15 µM / inhibition at 25 µM: S. aureus P2, pre-exposure, ± SD; for MIC / inhibition at 5 µM / inhibition at 10 µM / inhibition at 15 µM / inhibition at 25 µM: Staphylococcus aureus; for MIC: P2, pre-exposure, 18 h
Method in brief: as §1

[3] = Cytotoxicity, resazurin staining assay; type: cell-based, human; conditions: human, 24 h incubation
Description: The cytotoxicity of the compounds was assessed on the three different human cell lines, A549, HEp-2, and HL-60, using the redox-based resazurin staining assay. The cells were seeded in clear 96-well plates at a density of 1 × 10^4 cells per well in a volume of 200 μL per well. The adherent cells were let to attach for 24 h before changing the media and adding the compounds (final concentration of 0.25% DMSO). HL-60 were counted and added to the plates at a density of 1 × 10^4 cells per well in a volume of 200 μL directly with the compounds. Untreated cells were used as negative controls, and cells treated with 1% TritonX-100 (Sigma-Aldrich, St. Louis, MO) were used as positive controls for cytotoxicity. The cells were incubated with the compounds for 24 h.
For the resazurin assay, the media was first removed, and the adherent cells were washed once with PBS. Then, 200 μL of 20 μM resazurin was added per well and cells were incubated for two more hours before the measurement of fluorescence, as mentioned earlier. For HL-60, 10 μL of 400 μM resazurin was added directly to the wells and the cells were incubated for an additional 4 h before the measurement of fluorescence.

[4] = Colloidal aggregation by nephelometry; type: physicochemical; conditions: 25 µM
Description: 3. Aggregation data (Figure S3)
Potential colloidal aggregation in biological assays was studied at five concentrations (5 µM, 10 µM, 15 µM,
25 µM, 50 µM). The original assay conditions were simulated, and the light scattering of potential aggregates
in the mixture was studied by nephelometric methods using Nepheloskan Ascent (Labsystems, Finland).
Aggregation of the blank and compounds fingolimod, 43, 45, 55, 62, 79 and 82 were measured as triplicates
from one independent experiment at 400 V and at room temperature.
formation at 50 µM. […] However, at 15
µM, 10 µM and 5 µM, the obtained values were close to those observed by blank, therefore indicating only
minor or no detectable aggregation.
Figure S3: Aggregation data for fingolimod and compounds 43, 45, 55, 62, 79, 82. RNU = relative nephelometric unit.
The data are shown as the mean ± SD and normalized to the blank.
(1 picture or pasted object on this page, not shown here)

[5] = 5 µM, read-out: Average inhibition %, biofilms biomass
[6] = 5 µM, read-out: Average inhibition %, planktonic cells turbidity
[7] = 10 µM, read-out: Average inhibition %, biofilms biomass
[8] = 10 µM, read-out: Average inhibition %, planktonic cells turbidity
[9] = 15 µM, read-out: Average inhibition %, biofilms biomass
[10] = 15 µM, read-out: Average inhibition %, planktonic cells turbidity
[11] = 25 µM, read-out: Average inhibition %, biofilms biomass
[12] = 25 µM, read-out: Average inhibition %, planktonic cells turbidity
[13] = pre-exposure, 18 h, read-out: MIC S. aureus ATCC 12598

Row | SMILES | Average inhibition %, biofilms viability ([1]; 5 µM) | Average inhibition %, planktonic cells viability ([1]; 5 µM) | Average inhibition %, biofilms viability ([1]; 10 µM) | Average inhibition %, planktonic cells viability ([1]; 10 µM) | Average inhibition %, biofilms viability ([1]; 15 µM) | Average inhibition %, planktonic cells viability ([1]; 15 µM) | Average inhibition %, biofilms viability ([1]; 25 µM) | Average inhibition %, planktonic cells viability ([1]; 25 µM) | inhibition at 5 µM [1, 5] | inhibition at 5 µM [1, 6] | inhibition at 10 µM [1, 7] | inhibition at 10 µM [1, 8] | inhibition at 15 µM [1, 9] | inhibition at 15 µM [1, 10] | inhibition at 25 µM [1, 11] | inhibition at 25 µM [1, 12] | MIC [1, 13] | Average inhibition %, biofilms viability ([2]; 5 µM) | Average inhibition %, planktonic cells viability ([2]; 5 µM) | Average inhibition %, biofilms viability ([2]; 10 µM) | further results
1 | CCCCCCCCc1ccc2cc(CC(N)(CO)CO)ccc2c1 [Compound 79, 2-Amino-2-[(6-octylnaphthalen-2-yl)methyl]propane-1,3-diol] | 65.9 ± 50.1% | 69.3 ± 47.1% | 99.6 ± 0.1% | 99.8 ± 0.1% | 99.5 ± 0% | 99.6 ± 0.1% | 99.5 ± 0.1% | 99.6 ± 0.1% | 63.5 ± 41.5% | 82.3 ± 26.8% | 94.7 ± 0.2% | 99.6% | 94.6 ± 0.6% | 99.4 ± 0.1% | 95 ± 1% | 99.2 ± 0.3% | 5 to 10 µM (≈ 1.72 to 3.44 µg/mL) | 49.4 ± 34.5% | 45.3 ± 32.9% | 99.4 ± 0% | MIC ([1]; S. aureus ATCC 12598 and P2, read-out: MIC against the clinical strains of S. aureus): 5 to 10 µM (≈ 1.72 to 3.44 µg/mL); Average inhibition %, planktonic cells viability ([2]; 10 µM): 99.6 ± 0%; Average inhibition %, biofilms viability ([2]; 15 µM): 99.4 ± 0%; Average inhibition %, planktonic cells viability ([2]; 15 µM): 99.6 ± 0.1%; Average inhibition %, biofilms viability ([2]; 25 µM): 99.5 ± 0%; Average inhibition %, planktonic cells viability ([2]; 25 µM): 99.6 ± 0.1%; MIC [2]: 10 µM (≈ 3.44 µg/mL); inhibition at 5 µM [2, 5]: 63.6 ± 23.6%; inhibition at 5 µM [2, 6]: 45.4 ± 35.4%; inhibition at 10 µM [2, 7]: 95.8 ± 2.2%; inhibition at 10 µM [2, 8]: 99.5%; inhibition at 15 µM [2, 9]: 97.3 ± 0.5%; inhibition at 15 µM [2, 10]: 99.4 ± 0.1%; inhibition at 25 µM [2, 11]: 96.4 ± 1.3%; inhibition at 25 µM [2, 12]: 99.1 ± 0.2%; CC50 at 24 h ([3]; A549 cells): > 40 µM; CC50 at 24 h ([3]; HEp-2 cells): > 40 µM; CC50 at 24 h ([3]; HL-60 cells): 26.9 ± 1.6 µM; Aggregation (nephelometry) [4]: potential aggregation
2 | CCCCCCCCc1ccc(CCC(N)(CO)CO)cc1 [fingolimod, Fingolimod] | 16.9 ± 2.9% | 2.9 ± 2.9% | 35.8 ± 17.9% | 34 ± 29.5% | 99.2 ± 0.5% | 99.7 ± 0% | 99.6 ± 0.3% | 99.7 ± 0% | 18.5 ± 17.7% | 6.3 ± 8.7% | 43.2 ± 15.8% | 21.5 ± 27.1% | 94.5 ± 1.1% | 99.6 ± 0.1% | 95.2 ± 0.4% | 99.2 ± 0.1% | 15 µM (≈ 4.61 µg/mL) | 18.2 ± 17% | 4.3 ± 7.4% | 55.4 ± 38% | Average inhibition %, planktonic cells viability ([2]; 10 µM): 45 ± 45.6%; Average inhibition %, biofilms viability ([2]; 15 µM): 99.8 ± 0%; Average inhibition %, planktonic cells viability ([2]; 15 µM): 99.8 ± 0%; Average inhibition %, biofilms viability ([2]; 25 µM): 99.8 ± 0.1%; Average inhibition %, planktonic cells viability ([2]; 25 µM): 99.7 ± 0%; MIC [2]: 15 µM (≈ 4.61 µg/mL); inhibition at 5 µM [2, 5]: 34.9 ± 19%; inhibition at 5 µM [2, 6]: 3.3 ± 5.8%; inhibition at 10 µM [2, 7]: 64.3 ± 29.1%; inhibition at 10 µM [2, 8]: 39.5 ± 45.1%; inhibition at 15 µM [2, 9]: 98.3 ± 0.1%; inhibition at 15 µM [2, 10]: 99.6%; inhibition at 25 µM [2, 11]: 98 ± 0.4%; inhibition at 25 µM [2, 12]: 99.3 ± 0.1%; CC50 at 24 h ([3]; A549 cells): > 40 µM; CC50 at 24 h ([3]; HEp-2 cells): > 40 µM; CC50 at 24 h ([3]; HL-60 cells): 36.1 ± 13.4 µM; Aggregation (nephelometry) [4]: potential aggregation
